We go through four molecules from PMC3257202, “Xylan oligosaccharides and cellobiohydrolase I (TrCel7A) interaction and effect on activity” (Biotechnology for Biofuels, 2011).

Where only a bound is given, the exact number is not on record here.

One experiment addresses T1, TrCel7A core (Trichoderma reesei, UniProt P62694).
T1 construct: gene cbh1; GH7 catalytic domain only, first 436 residues after the 17-residue signal peptide; linker and C-terminal family 1 CBM removed; recombinant from Aspergillus oryzae, purified
T1 sequence (P62694 18-453): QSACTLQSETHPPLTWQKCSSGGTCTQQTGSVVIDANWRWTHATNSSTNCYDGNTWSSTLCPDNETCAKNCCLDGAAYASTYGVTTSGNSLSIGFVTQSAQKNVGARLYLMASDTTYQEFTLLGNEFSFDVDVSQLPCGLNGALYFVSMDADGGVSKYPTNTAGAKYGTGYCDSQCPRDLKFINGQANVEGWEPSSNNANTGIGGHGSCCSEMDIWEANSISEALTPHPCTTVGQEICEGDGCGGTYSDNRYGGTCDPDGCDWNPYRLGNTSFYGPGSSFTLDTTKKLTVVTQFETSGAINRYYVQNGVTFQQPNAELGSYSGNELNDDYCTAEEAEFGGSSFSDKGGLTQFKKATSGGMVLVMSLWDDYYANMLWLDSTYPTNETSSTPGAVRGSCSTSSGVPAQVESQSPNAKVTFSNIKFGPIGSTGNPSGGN
The experiment is described as follows: isothermal titration calorimetry. Conditions: 30°C, binding constant on a molar concentration scale (unit not given). An excerpt: isothermal titration calorimetry on TrCel7A core

For another experiment, the target named is T2, TrCel7A (Trichoderma reesei, UniProt P62694).
T2 construct: gene cbh1; full-length secreted enzyme (GH7 catalytic domain, glycosylated linker, family 1 CBM), 17-residue signal peptide removed, 52 kDa; recombinant from Aspergillus oryzae, purified
T2 sequence (P62694 18-513): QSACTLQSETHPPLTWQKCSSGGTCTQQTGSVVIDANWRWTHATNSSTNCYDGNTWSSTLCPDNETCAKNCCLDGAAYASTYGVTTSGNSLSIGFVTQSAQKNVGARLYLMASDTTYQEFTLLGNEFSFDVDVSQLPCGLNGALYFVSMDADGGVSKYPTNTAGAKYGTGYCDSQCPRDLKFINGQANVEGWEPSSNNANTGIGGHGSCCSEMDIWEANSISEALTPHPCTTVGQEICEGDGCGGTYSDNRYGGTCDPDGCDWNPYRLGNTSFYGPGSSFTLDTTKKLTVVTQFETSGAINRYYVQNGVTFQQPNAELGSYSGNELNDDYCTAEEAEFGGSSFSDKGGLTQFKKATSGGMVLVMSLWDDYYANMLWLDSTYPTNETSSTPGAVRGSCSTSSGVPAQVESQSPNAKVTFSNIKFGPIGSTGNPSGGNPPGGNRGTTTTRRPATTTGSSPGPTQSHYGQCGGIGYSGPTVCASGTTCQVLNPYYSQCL
Nature of the experiment: isothermal titration calorimetry. Conditions: 30°C; binding constant on a molar concentration scale (unit not given). An excerpt: isothermal titration calorimetry on TrCel7A

In the case of `OC1OC[C@@H](O[C@@H]2OC[C@@H](O[C@@H]3OC[C@@H](O[C@@H]4OC[C@@H](O[C@@H]5OC[C@@H](O[C@@H]6OC[C@@H](O[C@@H]7OC[C@@H](O)[C@H](O)[C@H]7O)[C@H](O)[C@H]6O)[C@H](O)[C@H]5O)[C@H](O)[C@H]4O)[C@H](O)[C@H]3O)[C@H](O)[C@H]2O)[C@H](O)[C@H]1O` (some centres unmarked) [Xyloheptaose], at TrCel7A core, the “TrCel7A core (K)” value was 7.43 × 10^3. Also, the “TrCel7A (K)” value at TrCel7A is 5.76 × 10^3.

As for Xylohexaose (xyl)5, the “TrCel7A core (K)” value at TrCel7A core (compound identity contradictory in print (name hexaose, formula (xyl)5)) is 3.44 × 10^3.

`OC1OC[C@@H](O[C@@H]2OC[C@@H](O[C@@H]3OC[C@@H](O)[C@H](O)[C@H]3O)[C@H](O)[C@H]2O)[C@H](O)[C@H]1O` (some centres unmarked) [Xylotriose]: the “TrCel7A core (K)” value at TrCel7A core was > 1.0 × 10^3.

Turning to `OC1OC[C@@H](O[C@@H]2OC[C@@H](O[C@@H]3OC[C@@H](O[C@@H]4OC[C@@H](O)[C@H](O)[C@H]4O)[C@H](O)[C@H]3O)[C@H](O)[C@H]2O)[C@H](O)[C@H]1O` (some centres unmarked) [Xylotetraose], the “TrCel7A core (K)” value at TrCel7A core is recorded as 2.97 × 10^3.
